From ChEMBL document CHEMBL5053535, “Design, synthesis and biological evaluation of novel aminopyrazole- and 7-azaindole-based Nek1 inhibitors and their effects on zebrafish kidney development” (Bioorg Med Chem Lett, 2021)
Converted amounts (≈) assume the structure as drawn.

What was measured:
[1] = Solubility of the compound in E3 medium with 0.2% DMSO by DAD-HPLC based shake flask method; format: physicochemical
[2] = target: T1, Serine/threonine-protein kinase Nek1 (Homo sapiens) (UniProt Q96PY6); test: Inhibition of human NEK1 using myelin basic protein as substrate assessed as residual activity at 1 uM in presence of [gamma-33P]-ATP by radiometric hotspot kinase assay relative to control
T1 sequence (whole entry): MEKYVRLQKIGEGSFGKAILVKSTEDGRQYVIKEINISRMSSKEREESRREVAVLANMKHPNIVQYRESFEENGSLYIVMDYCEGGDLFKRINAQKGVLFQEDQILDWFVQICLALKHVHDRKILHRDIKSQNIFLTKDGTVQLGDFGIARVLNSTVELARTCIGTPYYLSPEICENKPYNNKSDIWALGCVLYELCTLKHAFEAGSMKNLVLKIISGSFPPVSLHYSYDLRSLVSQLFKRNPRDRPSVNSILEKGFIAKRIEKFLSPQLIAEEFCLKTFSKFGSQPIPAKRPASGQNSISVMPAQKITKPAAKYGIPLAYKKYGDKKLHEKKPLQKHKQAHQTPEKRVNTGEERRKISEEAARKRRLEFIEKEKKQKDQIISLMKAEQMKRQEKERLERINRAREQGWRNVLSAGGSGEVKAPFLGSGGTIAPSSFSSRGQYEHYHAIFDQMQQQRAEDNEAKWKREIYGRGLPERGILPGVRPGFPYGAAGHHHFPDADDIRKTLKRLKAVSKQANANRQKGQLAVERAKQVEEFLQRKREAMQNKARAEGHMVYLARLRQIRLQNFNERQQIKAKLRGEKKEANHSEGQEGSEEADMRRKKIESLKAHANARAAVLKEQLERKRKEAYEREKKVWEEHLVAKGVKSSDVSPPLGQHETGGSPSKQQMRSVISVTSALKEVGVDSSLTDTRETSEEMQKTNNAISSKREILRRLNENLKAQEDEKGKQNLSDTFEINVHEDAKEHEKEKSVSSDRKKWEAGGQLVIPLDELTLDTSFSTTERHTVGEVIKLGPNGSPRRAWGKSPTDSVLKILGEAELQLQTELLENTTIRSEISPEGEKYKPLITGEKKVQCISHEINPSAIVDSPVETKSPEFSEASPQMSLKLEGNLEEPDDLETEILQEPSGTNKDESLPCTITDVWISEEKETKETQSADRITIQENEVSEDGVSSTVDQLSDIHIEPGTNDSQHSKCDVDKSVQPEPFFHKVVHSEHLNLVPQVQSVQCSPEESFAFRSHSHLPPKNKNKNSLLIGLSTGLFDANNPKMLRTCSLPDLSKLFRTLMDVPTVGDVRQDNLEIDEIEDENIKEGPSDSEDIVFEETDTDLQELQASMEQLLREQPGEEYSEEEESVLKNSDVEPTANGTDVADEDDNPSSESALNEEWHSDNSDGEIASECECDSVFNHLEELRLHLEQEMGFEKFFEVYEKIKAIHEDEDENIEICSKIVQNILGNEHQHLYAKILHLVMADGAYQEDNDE

Danio rerio [3] = species on record: Danio rerio; test: Toxicity in wild type zebra fish model of polycystic kidney disease assessed as increase in fluorescence intensity at 0.5 uM incubated for 48 hrs in presence of N-phenyl thiourea further treated with PT-yellow for 20 mins followed by dye washout and incubated in solution containing compound for 96 hrs by fluorescence imaging analysis; format: organism-based; conditions: zebrafish, in vivo
[4] = Permeability across basolateral to apical side in human Caco-2 cells at pH 7.4 assessed as compound recovery at 1 uM; format: ADME, cell-based; conditions: Caco-2, pH 7.4, read-out: Drug recovery
Danio rerio [5] = species on record: Danio rerio; test: Toxicity in zebra fish embryos assessed as phenotype changes at 0.01 to 2.5 uM measured after 96 hrs; format: organism-based; conditions: zebrafish, in vivo, dose 0.01-2.5 µM
[6] = Permeability across basolateral to apical side in human Caco-2 cells at pH 7.4 at 1 uM; format: ADME, cell-based; conditions: Caco-2, pH 7.4, read-out: permeability
[7] = target: T2, Serine/threonine-protein kinase Chk1 (Homo sapiens) (UniProt O14757); test: Inhibition of human recombinant full length N-terminal His tagged CHK1 expressed in baculovirus infected Sf21 insect cells using CHKtide as substrate assessed as residual activity at 1 uM pretreated for 20 mins followed by [33P]-ATP addition measured after 120 mins by radiometric hotspot kinase assay relative to control; conditions: time 140.0 min
T2 sequence (whole entry): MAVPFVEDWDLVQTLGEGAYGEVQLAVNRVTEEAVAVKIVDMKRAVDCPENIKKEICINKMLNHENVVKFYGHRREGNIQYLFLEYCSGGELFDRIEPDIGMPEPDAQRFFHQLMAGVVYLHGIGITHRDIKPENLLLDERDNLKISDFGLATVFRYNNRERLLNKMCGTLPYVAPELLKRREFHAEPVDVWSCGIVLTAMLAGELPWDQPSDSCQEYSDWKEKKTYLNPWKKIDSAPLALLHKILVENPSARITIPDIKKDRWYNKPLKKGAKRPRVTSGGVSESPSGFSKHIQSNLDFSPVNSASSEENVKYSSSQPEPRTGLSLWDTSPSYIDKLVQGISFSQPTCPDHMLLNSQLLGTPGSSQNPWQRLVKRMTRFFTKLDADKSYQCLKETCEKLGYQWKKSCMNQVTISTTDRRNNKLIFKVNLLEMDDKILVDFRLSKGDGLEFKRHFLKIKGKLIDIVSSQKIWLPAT

[8] = Permeability across apical to basolateral side in human Caco-2 cells at pH 6.5 assessed as compound recovery at 1 uM; format: ADME, cell-based; conditions: Caco-2, pH 6.5, read-out: Drug recovery
[9] = Toxicity in zebra fish embryos assessed as lethality at 1.5 uM measured after 96 hrs relative to control; format: organism-based, Danio rerio; conditions: zebrafish, in vivo, read-out: Activity
[10] = Stability of the compound in DMEM measured after 48 hrs by DAD-HPLC method; format: physicochemical; conditions: read-out: Stability
[11] = Solubility of the compound in DMEM with 1% DMSO by DAD-HPLC based shake flask method; format: physicochemical
[12] = target: Wee1-like protein kinase (Homo sapiens) (UniProt P30291); test: Inhibition of human recombinant full length WEE1 expressed in insect cells using MBP as substrate assessed as residual activity at 1 uM pretreated for 20 mins followed by [33P]-ATP addition measured after 120 mins by radiometric hotspot kinase assay relative to control; conditions: time 140.0 min
Wee1-like protein kinase (Homo sapiens), sequence (P30291 whole entry, looked up): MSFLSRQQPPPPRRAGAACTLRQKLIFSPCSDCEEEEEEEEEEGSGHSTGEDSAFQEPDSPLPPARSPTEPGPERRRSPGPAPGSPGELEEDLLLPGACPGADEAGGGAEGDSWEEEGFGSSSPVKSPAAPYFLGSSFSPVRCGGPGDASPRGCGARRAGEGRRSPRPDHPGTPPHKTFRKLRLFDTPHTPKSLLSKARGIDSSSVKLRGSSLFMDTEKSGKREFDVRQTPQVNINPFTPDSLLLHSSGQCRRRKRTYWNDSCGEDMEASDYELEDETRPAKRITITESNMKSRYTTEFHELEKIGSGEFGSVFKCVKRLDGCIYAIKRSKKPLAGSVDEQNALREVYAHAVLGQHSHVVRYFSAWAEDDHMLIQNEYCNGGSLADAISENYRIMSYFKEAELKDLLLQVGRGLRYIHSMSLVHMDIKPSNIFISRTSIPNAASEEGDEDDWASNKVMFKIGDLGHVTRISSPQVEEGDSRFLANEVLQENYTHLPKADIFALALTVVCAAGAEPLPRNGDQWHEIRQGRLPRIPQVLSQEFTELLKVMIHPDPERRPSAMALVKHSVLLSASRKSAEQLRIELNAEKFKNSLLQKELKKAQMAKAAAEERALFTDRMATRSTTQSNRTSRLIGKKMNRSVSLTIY

[13] = Toxicity in zebra fish embryos assessed as lethality at 2.5 uM measured after 24 hrs relative to control; format: organism-based, Danio rerio; conditions: zebrafish, in vivo, read-out: Activity

## COC(=O)c1cccc(-c2cnc3[nH]cc(-c4cccnc4)c3c2)c1
[1]
  solubility: 1.9 µM (≈ 0.626 µg/mL)
[2]
  Activity: -0.6%
Danio rerio [3]
  Activity: Toxic
[4]
  recovery at 1 µM: 29.6%
Danio rerio [5]
  Activity: Non-Toxic
[6]
  Papp B→A at 1 µM: 0.04 ×10⁻⁶ cm/s
[7]
  Activity: 48.5%
[8]
  recovery at 1 µM: 0.4%
[9]
  mortality at 96 h, 1.5 µM: 100%
[10]
  remaining at 48 h: 103%
[11]
  solubility: 4.3 µM (≈ 1.42 µg/mL)
[12]
  Activity: 82.1%
[13]
  mortality at 24 h, 2.5 µM: 100%
